# “Also recorded” adds a separate entry of the source.
# What was measured:
# human colonoids = test: AmplexRed H2O2 production in human colonoid monolayer cultures; format: cell-based
# Method: FIG. 11A includes representative images showing AuPhos-induced (200 nM) mtROS (superoxide) production using MitoSOX Red assay.
# Murine IEC will be isolated as above. Human biopsies will be incubated for 15 min at RT in CMF-HBSS/10 mM DTT with following incubation at 4° C. CMF-HBSS/8 mM EDTA for 75 min. Epithelial cells will be dislodged by vigorous shaking. Large pieces of tissue will be discarded, epithelial cells harvested by centrifugation at 40 g/5 min and imbedded in Matrigel. Both human and mouse colonoids will be grown in WRN medium (conditional medium from L-WRN cells (ATCC CRL-3276)) supplemented with 20% FBS, 500 nM A 83-01, 10 μM SB 202190, 10 μM Y27632, 2.5 μM CHIR99021, 100 μg/ml piromicin and 2.5 μg/ml amphotericin. Colonoids will be passaged every 5-7 days. NCM460 cells derived from normal human colon mucosa were purchased from INCELL Corporation, and will be cultured in M3:10 medium with 30% conditioned medium from previous culture under standard incubation conditions.
# Given the in vivo data in FIG. 10, it was determined if AuPhos increases ROS levels within mitochondria (mtROS). To examine this possibility, colonic NCM460 cells were cultured, treated with a positive control (Rotenone), AuPhos (200 nM) or AuPhos with PEG-SOD (negative control) and analyzed with MitoSOX Red (an indicator of mitochondrial superoxide). […]
# [1] = tested on: TNF-stimulated colonic NCM460 cells; test: Western blot of TNF-stimulated NCM460 cells treated with AuPhos (mitochondrial biogenesis, PI3K markers); format: cell-based, human; conditions: WB
# Method: FIG. 14A Normal human colonic biopsies were incubated a^t 4° C. with AuPhos×3 hrs and membrane fractions examined for mitochondrial complexes expression by WB. FIG. 14B TNF-stimulated colonic NCM460 cells were treated overnight with AuPhos at concentrations indicated. WB for markers indicated are shown in nuclear and membranous protein fractions. FIG. 14C Markers of PI3K pathway were probed in nuclear and cytosolic fractions of AuPhos-treated NCM460 cells (treated with TNF). FIG. 14D NCM460 cell were treated overnight with TNF and probed for the ROS-induced P-PTEN, which inactivates PTEN and activates PI3K.
# The effects of AuPhos in Px-accelerated IL-10KO mice by beginning treatment on D21 (7D after cessation of Px) when colitis is severe is shown in FIG. 13A. AuPhos-induced mitochondrial biogenesis and PI3K signaling. To examine the effect of AuPhos on mitochondrial biogenesis in human colonic IEC, fresh biopsies were cultured with a dose range of AuPhos and examined (after 3 h) for mitochondrial complex levels. […] Lastly, TNF stimulates p-PTEN in NCM460 cells indicative of ROS-induced PTEN inactivation as published. It is likely that induction of mtROS by AuPhos enhances PI3K signaling which promotes mitochondrial biogenesis (PGC1α and TFAM) as well as cooperate with Wnt to enhance β-catenin signaling in fissioning crypts.
# [2] = Toxicity (weight change) in AuPhos-treated mice over time; format: in vivo, mouse
# Description: FIGS. 8A-8J present properties of AuPhos. FIG. 8A includes a chemical structure of AuPhos. FIG. 8B includes extrapolated AuPhos-induced OCR (complex I) in liver mitochondria. […] FIG. 8E provides weight change in AuPhos-treated mice over time. FIG. 8F presents stability of AuPhos in PBS and DMEM. FIG. 8G presents stability of AuPhos in PBS and DMEM. FIG. 8H includes an AuPhos-induced Heat map of DEG (left Panel), obtained using log 2(Fold Change) and p-Value <0.00001 thresholds in MDA-MB-231(107) cells (n=2), and the top six hits of KEGG analysis (right panel). FIG. 8I presents biodistribution and pharmacokinetics of AuPhos in different tissues; Colon, Small bowel, Lung, Kidney, Spleen, Liver, Heart and Blood after single dose (oral, 25 mg/kg) administration of AuPhos at 6 h, 12 h and 24 h. FIG. 8J presents biodistribution and pharmacokinetics of AuPhos in different tissues stool after single dose (oral, 25 mg/kg) administration of AuPhos at 6 h, 12 h and 24 h.
# This observation was mitochondrial complex I-driven when different substrates, i.e. pyruvate and succinate, were used to measure the OCR. Transcriptomics was used to study global changes in mRNA in response to a 12 h exposure of AuPhos to MDA-MB-231 cells (FIG. 8H).
smiles,measurement,setting,value
[Cl][Au]1([c]2ccccc2Cc2ccccn2)[P](c2ccccc2)(c2ccccc2)c2ccccc2[P]1(c1ccccc1)c1ccccc1 [AuPhos],hydrogen peroxide (H2O2) production,"human colonoids; AuPhos 200 nM, normal and low-dose TNF-stimulated human colonoids, AmplexRed",increased in normal and TNF-treated cells; also recorded: Increases H2O2 production
same,AuPhos-induced ROS (H2O2) with PEG catalase,human colonoids; human colonoids,specifically digested with PEG catalase
same,markers of PI3K [pAkt and pS6 kinase (pS6)],[1]; NCM460 cells treated with TNF,induced markers of PI3K
same,PGC1a and TFAM protein,"[1]; NCM460 cells, TNF-stimulated, overnight AuPhos",induces PGC1a and TFAM
same,nuclear pp-catenin5,[1]; NCM460 cells,induction of nuclear pp-catenin5
same,liver toxicity,"[2]; mice, data not shown",not observed
same,toxicity in mice,[2]; over 20 days,no toxicity

# Source: patent US12521415B2, “Accelerating repair of mucosal injury using gold(III) compounds” (University of Kentucky Research Foundation, priority 2020, dated 2026)
